Here are results for four sequences from patent US20240424119A1, “USE OF POLYPEPTIDE IN RESISTANCE TO ADDICTION AND RELAPSE THEREOF, AND COMPLEX AND POLYPEPTIDE” (SHENZHEN CHENYANG BIOLOGICAL TECHNOLOGY CO., LTD, priority 2021, published 2024).

Common to all, as to type: in vivo
The subject of assay [1] is alcohol-induced behavioral sensitization in mice. As to the kind of experiment: Effects of different polypeptides on alcohol-induced behavioral sensitization in mice. To be noted: 3 nmol/g i.p. 1 hour before alcohol (2.2 g/kg) on third day after training; TAT fusion peptides; n=10. On the procedure:
(§1) Then, the C-terminal of Pep1 to Pep5 was fused to the N-terminal of TAT respectively to obtain fusion peptides which could penetrate the blood-brain barrier.
In order to verify that the polypeptide of the invention is also effective against alcohol-induced addiction, the following tests were carried out:
The training period lasted for 10 days, during which mice were administered alcohol (2.2 g/kg) or normal saline every other day and then immediately tested for 15 minutes. On the third day after training, 1 hour before alcohol administration, different polypeptides of Example 9 (3 nmol/g) were administered to mice via intraperitoneal injection (10 ml/kg) for drug induction, and a testing was carried out, and the results were shown in FIG. 19.

Assay [2] concerns morphine-induced CPP in mice. As to the kind of experiment: Effects of different polypeptides on morphine-induced CPP in mice. As to conditions: 3 nmol/g i.p. on Day 10, recorded on the second day after administration; TAT fusion peptides; n=12. On the procedure:
The CPP equipment used in the experiment has two equal-volume chambers (15 cm×15 cm×37 cm) with a movable door in the middle. Mice could freely shuttle between chambers during testing, or were limited to one side of the chamber during training. The interior of one chamber is black and the bottom is striped, while the other chamber is white and the bottom is latticed. All behavioral tests, including distance and time of activity, were recorded by a camera and calculated using the SMART Video Tracking System (Version 2.5; Panlab Technology for Biosearch, Spain).
On Day 1, mice were allowed to explore two chambers freely for 15 min without any treatment (before testing). On Day 2, 4, 6 and 8, control group (saline group) and model group (morphine group) received saline (10 mL/kg) and morphine (10 mg/kg), respectively. TAT group (3 nmol/g) and TAT-D2R-KT group (3 nmol/g) were injected (intraperitoneally, 10 ml/kg body weight) 1 hour before morphine injection. After injection, all mice were trained in the white chamber for 40 min. On Day 3, 5, 7 and 9, all mice were given normal saline, and then immediately placed in the black chamber for 40 min; on Day 10, after all mice explored freely for 15 min, the test ended, and the CPP scores (moving duration of mice) were shown in FIG. 6.
as §1
Mice were given morphine (1 mg/kg) or normal saline for 8 days, and different polypeptides (3 nmol/g) of Example 9 were administered to mice via intraperitoneal injection (10 ml/kg) on Day 10; the expression of morphine-induced CPP was recorded according to the CPP experimental method in Example 5 on the second day after administration, and the results were shown in FIG. 17.

Assay [3] deals with cocaine-induced behavioral sensitization in mice. As to the kind of experiment: Effects of different polypeptides on cocaine-induced behavioral sensitization in mice. As to conditions: 3 nmol/g i.p. 1 hour before cocaine (15 mg/kg) on sixth day of pause; TAT fusion peptides; n=10. The protocol:
as §1
In order to verify that the polypeptide of the invention is also effective against cocaine-induced addiction, the following tests were carried out:
Mice were given cocaine (15 mg/kg) or normal saline and then tested for 30 minutes, repeated for 5 days, and followed by a 5-day pause of administration. On the sixth day of the pause, 1 hour before cocaine administration, different polypeptides of Example 9 (3 nmol/g) were administered to mice via intraperitoneal injection (10 ml/kg) for drug induction, and a testing was carried out, and the results were shown in FIG. 18.

With “KIYIVLGGGRKRVNT [Pep4, variant with the mid-segment RRR mutated to GGG; tested fused to TAT]”, the “expression of sensitization behavior (alcohol-induced)” value (“expression … (alcohol-induced)” for short) in assay [1] is on record as “failed to inhibit the expression of sensitization behavior”. Besides, the “activity distance of morphine-CPP mice” value in assay [2] was “failed to significantly reduce the activity distance”. For the same sequence, the “expression of sensitization behavior (cocaine-induced)” value (from here on “expression … (cocaine-induced)”) in assay [3] is listed as “failed to inhibit the expression of sensitization behavior”.

Regarding “KIYIVLRRRGGGVNT [Pep5, variant with the mid-segment RKR mutated to GGG; tested fused to TAT]”, the “expression … (alcohol-induced)” value in assay [1] is given as “failed to inhibit the expression of sensitization behavior”. Besides, the “activity distance of morphine-CPP mice” value in assay [2] is listed as “failed to significantly reduce the activity distance”. The “expression … (cocaine-induced)” value in assay [3] is recorded as “failed to inhibit the expression of sensitization behavior”.

Take “KIYIVLRRRRKRV [Pep3, variant of KT polypeptide, C-terminal truncated; tested fused to TAT]”: in assay [1], the “expression … (alcohol-induced)” value is “significantly inhibited the expression of sensitization behavior”. Besides, the “activity distance of morphine-CPP mice” value in assay [2] was “significantly reduced the activity distance”. In assay [3], the “expression … (cocaine-induced)” value is on record as “significantly inhibited the expression of sensitization behavior”.

In the case of “YIVLRRRRKRVNT [Pep2, variant of KT polypeptide, N-terminal truncated; tested fused to TAT]”, the “expression … (alcohol-induced)” value in assay [1] is listed as “significantly inhibited the expression of sensitization behavior”. Also, the “activity distance of morphine-CPP mice” value in assay [2] is listed as “significantly reduced the activity distance”. The “expression … (cocaine-induced)” value in assay [3] is “significantly inhibited the expression of sensitization behavior”.
